Each structure is given as a SMILES string.

These results are taken from a melting point compilation (Tetko et al.; mined from patent text by program, amines drawn as free bases though some values may be those of a salt).

The term melting point denotes the temperature, or range, at which the solid turns liquid.

In turn, `Cc1cccc(Nn2c(-c3ccccc3)c(C)[nH]c2=S)c1` gave a melting point of 206 °C.
The figure for `O=C(c1ccc(-c2ccc3nnn(Cc4ccc5ncccc5c4)c3n2)cc1)N1CCC(N2CCCC2)CC1` is 125 to 127 °C.
Turning to `C#CCNC(=O)N1CC(Oc2ccc(C(F)(F)F)cc2)C1`, the melting point lay within 135 to 137 °C.
The figure for `COC(=O)c1ccc(Cn2c(=O)c3cc(C(=O)NCc4ccc(OC)cc4)sc3n(C)c2=O)cc1OC` is 201 to 203 °C.
Turning to `CCc1c(N)c(C(N)=O)nn1CCN1CCOCC1`, the melting point was in the range of 152 to 153 °C.
The figure for `Cn1cc(-c2cc3nccnc3[nH]2)c2cc(C(=O)O)ccc21` is 350 °C; for `COCn1nccc1C(=O)c1cc2c(c(Cl)c1Cl)OC(C(=O)O)O2` (configuration not stated) it is 168 to 170 °C; for `CC(Oc1cccc(Cl)c1)C(=O)NCCO[N+](=O)[O-]` (configuration not stated) it is 67 to 69 °C.
The figure for `COc1ccc(-c2cc(F)c(F)cc2-c2ccc(S(N)(=O)=O)cc2)cc1OC` is 157 to 158 °C; for `COc1ccc(CCN(C)C)c2[nH]c(=O)[nH]c12` it is 197 to 199 °C.
The figure for `COc1ccccc1NC(=O)c1ccc(COC2CCCCO2)cc1` (configuration not stated) is 67 to 70 °C; for `COC(=O)Nc1nc2ccc(Sc3ccccc3)cn2c1C(=O)C(F)(F)F` it is 171 to 173 °C.
In turn, `CCn1cnc2c(Nc3ccccc3)nc(Cl)nc21` gave a melting point of 158 °C.
`Oc1cccc(-c2ccccc2-c2nc(-c3ccccc3)c(-c3ccccc3)o2)c1` gave a melting point of 125 to 128 °C.
In the case of `Cc1nc2c3c(ccn2c1C)C(=O)C(O)C(c1ccsc1)N3` (configuration not stated) it was 222 to 225 °C; in that of `COc1ccc(C(=O)N2CCc3sccc3C2c2ccc(OC(F)(F)F)cc2)cc1` (configuration not stated), 68 to 70 °C.
`O=Cc1ccc2c(c1)NC(=O)CO2` displayed a melting point of 220 to 222 °C.
As to `CC(C)c1ccc(-c2nc(COc3ccc(OC(C)(C)C(=O)O)cc3)no2)cc1`, the melting point was 103 °C.
In the case of `O=C1CCN(Cc2ccccc2)C(=O)C1=C1SCCS1` it was 148 to 150 °C; in that of `O=C(O)c1ccc(Oc2ccccc2C(=O)O)cc1`, 220 to 223 °C.
The figure for `Cc1nc2cccc(O)c2o1` is 152 to 154 °C; for `CCOc1cccc(-c2c(C)c(=O)cc(-c3ccccc3)n2-c2ccccc2)c1` it is 146 to 149 °C; for `Cc1ccc(N2C(=O)NC(=O)C23CCN(C)CC3)cc1` it is 172 to 174 °C.
In the case of `O=S1(=O)CCN2C=C(F)C=C(c3ccc(Oc4ccccc4)cc3)C2=N1`, the melting point lay in the range of 91.9 to 92 °C.
The figure for `CCOC(=O)CC(=O)CSc1nc2cc(Cl)c(F)cc2c(O)c1C(=O)OCC` is 167 to 170 °C.
Consider `CC(=O)OC1C(C)OC(Sc2ccccc2)C(OCc2ccccc2)C1OC(C)=O` (configuration not stated), for which the melting point is 124 °C.
The figure for `COc1ccc(C(=O)Nc2ccc3ccc(Oc4cccc(C)c4)nc3n2)cc1` is 160 °C; for `CCCN(CCC)C(=O)Cc1ccc(OCc2ccccc2)c([N+](=O)[O-])c1` it is 67 to 68 °C.
Molecule `COc1cc(CCN)ccc1O` registered a melting point of 156 to 158 °C.
The figure for `Cc1c(NC(=O)c2ccc(OC[C@@H]3CCCO3)cc2)ccc2c1cc(CNCC(C)C)n2C` is 162 °C; for `O=C(O)C(=O)c1ccc(OCCOc2ccc3ccccc3c2)c(F)c1` it is 168 to 169 °C.
In the case of `Clc1ccc(Oc2ccccc2Oc2ncc(Br)cn2)nc1` it was 93 to 95 °C.
The figure for `Cc1c(C(=O)O)ncn1Cc1ccc2oc(-c3ccccc3-c3nnn[nH]3)c(Br)c2c1` is 248 °C; for `Cc1nnc(N2CCC(N3c4ccccc4N(C)S3(=O)=O)CC2)n1-c1ccc(Cl)cc1` it is 210 to 212 °C.
Consider `Cc1cc(OC2CCN(C(=O)OC(C)(C)C)CC2)ccc1[N+](=O)[O-]`, for which the melting point was in the range of 104 to 106 °C.
In the case of `COC(=O)N=C(NC(=O)OC)Nn1cccc1C(=O)OC` it was 160 °C; in that of `COc1ccc2c(c1)CCc1c-2n(-c2ccccc2)c2ncccc2c1=O`, 234 to 238 °C.
The figure for `CCCCCCCCCOc1cc(C(=O)Nc2c(Cl)cncc2Cl)ccc1OC` is 151 to 153 °C; for `COC(=O)[C@@H](NC(=O)OC(C)(C)C)[C@@H](S)c1ccccc1` it is 76 to 77 °C; for `CC(=O)NCC(=O)c1cccc(Cl)c1Cl` it is 107 to 109 °C.
Take `Cc1nc2c(N)nc3ccccc3c2n1CCCCOCC#Cc1ccccc1`: the melting point was in the range of 109 to 110 °C.
In the case of `O=c1ccc2cc(OC3CCC4(CCNCC4)CC3)ccc2o1` it was 193 to 194 °C; in that of `Nc1cccc(Oc2ccc(Cl)nn2)c1`, 76 to 77 °C; in that of `CCc1nn(CCNC(=O)c2ccccc2)c(CC)c1Cc1cc(Cl)cc(Cl)c1`, 115 to 117 °C.
The figure for `CSC1C(=O)Nc2c(Oc3ccccn3)cccc21` (configuration not stated) is 140 to 142 °C.
In the case of `Nc1cc(-n2cccn2)nc(-c2ccc(Cl)o2)n1` it was 210 to 211 °C.
As for `CCCCc1ccc(OC)c(-c2csc(NC(=O)c3ccc(C(=O)N4CCC(N5CCC(OC(C)=O)C5)CC4)cc3)n2)c1` (configuration not stated), the melting point was determined as 99 °C.
Regarding `N#CC(N)=C(C#N)N=Cc1cnn(-c2c(Cl)cc(C(F)(F)F)cc2Cl)n1`, the melting point lay within 234 to 235 °C.
In the case of `O=C(O)COCCc1ccc(Cl)cc1` it was 75 to 77 °C; in that of `O=c1c2c(Cl)cc(Cl)cc2n(Cc2ccccc2)c(=O)n1Cc1ccccc1Br`, 129 to 132 °C.
The figure for `CC(C)(C)c1cc(CCc2ccccc2NC(=O)NC2CCN(Cc3cc(F)cc(F)c3)CC2)cc(C(C)(C)C)c1O` is 119 to 120 °C; for `COc1nc(C)cnc1NS(=O)(=O)c1cccnc1-c1ccc(NC(C)C)cc1` it is 105 to 107 °C.
In the case of `CCOC(=O)N1CCN(CCNc2ncnc3c2sc2nc(N4CCCC4)c4c(c23)CC(C)(C)CC4)CC1` it was 76.2 to 77.8 °C; in that of `O=C1N(Cc2ccccc2)Cc2cnc(Nc3ccc(N4CCCCC4)cn3)nc2N1C1CCCC1`, 194 to 196 °C; in that of `CC(C)c1nc(CNC(=O)C(F)(F)F)n(C)c1Sc1cc(Cl)cc(Cl)c1`, 157 to 158 °C.
Molecule `OCc1cc2c(F)ccc(Cl)c2s1` displayed a melting point of 63 to 64 °C.
The figure for `CCCc1nn(C)c2c(=O)[nH]c(-c3cc(-c4nccn4C)ccc3OCC)nc12` is 199 to 202 °C; for `CC(=O)Nc1ccc(NC(=O)N(C[C@H]2CC[C@H](CN(C(=O)Nc3ccc(NC(C)=O)cc3)C3CCCCC3)CC2)C2CCCCC2)cc1` it is 228 to 231 °C.
In the case of `CCCOC(=O)c1ccc(OCCCCCCCc2cc(C)no2)cc1` it was 54 °C; in that of `N#Cc1c(O)nsc1S(=O)(=O)Cc1ccccc1`, 181 to 183 °C; in that of `N#CCCNC(=O)c1cccc(-c2cccc(Oc3ccc4c(c3)CCC4)n2)c1`, 122 to 123 °C.
The figure for `Cc1nnc(-c2ccc3occ(-c4cnco4)c3c2)o1` is 184 to 185 °C; for `O=C(O)c1ccc(-c2nnc(-c3ccc(OC(F)(F)C(F)(F)F)cc3)o2)cc1` it is 301 to 307 °C.
For the molecule `CN(C)S(=O)(=O)n1c(N)nc2ccc(C(=CCl)c3ccccc3)cc21`, the melting point was 207 to 215 °C.
In the case of `COc1ccc2oc(-c3ccccc3)c(C)c2c1` it was 106 to 107 °C.
Take `O=C1c2cccc3cc4ccccc4c(c23)C(=O)N1CCCNCCCN1C(=O)c2cccc3cc4ccccc4c(c23)C1=O`: the melting point was determined as 184 °C.
In the case of `COC(=O)c1ccccc1S(=O)(=O)NC(=O)Nc1cc(C)nc(C)n1` it was 125 to 127 °C; in that of `CCCOC1(C)CN(C(=O)Nc2ccc(C(F)(F)F)cc2)N=C1c1ccc(Cl)cc1` (configuration not stated), 135 to 138 °C; in that of `CC(C)(C)c1cc2c(c(C(C)(C)C)c1)O[Si](c1ccccc1)(c1ccccc1)Oc1c(cc(C(C)(C)C)cc1C(C)(C)C)S2`, 202 to 205 °C.
The molecule `O=C1CCC(N2Cc3cc(CNC(=O)Nc4cccc(Oc5ccccc5)c4)ccc3C2=O)C(=O)N1` (configuration not stated) displayed a melting point of 224 to 226 °C.
In the case of `O=S(=O)(Nc1ccc(-c2n[nH]c3c2Cc2ccccc2-3)cc1)c1ccccc1` it was 286 to 288 °C; in that of `CC(CO)(CCCCN1C(=O)c2ccccc2C1=O)c1ccccc1` (configuration not stated), 149 to 150 °C; in that of `CCCOc1ncc(N(C)C)cc1-c1nc2c(CCC)nn(C)c2c(=O)[nH]1`, 162 °C.
In the case of `CCOC(=O)c1cnn2c1nc(OCCC(C)C)c1cnc3c(cnn3CC)c12` it was 117 to 118 °C; in that of `CC(C)Nc1cccnc1N1CCN(C(=O)c2ccc(C(=O)NCCCO)cn2)CC1`, 139 to 140 °C; in that of `Cc1sc(-c2cccc(Br)c2)nc1O`, 148 to 149 °C.
The molecule `Cc1ncccc1Cn1nnnc1-c1cccc(Cl)c1Cl` came in with a melting point of 121 to 122 °C.
The figure for `CC1CC(=O)NN=C1c1ccc2c(c1)N(C1CCCC1)C(=O)C(C)O2` (configuration not stated) is 220 to 223 °C; for `COc1cccc(C(=O)N2CCc3cc(O)c(OC)cc3C2)c1` it is 141 to 142 °C.
The figure for `Cc1nc(Cc2ccc(N)cc2)sc1C` is 91 to 92 °C; for `O=C1c2ccccc2C(=O)N1Cc1ccc(OC(F)(F)F)cc1` it is 82.1 to 83.6 °C; for `N#CC1CN1C(=O)NC(=O)C(Cl)(Cl)Cl` (configuration not stated) it is 150 to 152 °C.
`COc1ccc(C2=NN(C3CCN(C(=O)NC(C)(C)C)CC3)C(=O)[C@H]3CC=CC[C@@H]23)c2c1OC(C)(C)C2` (relative stereo) gave a melting point of 145 to 147 °C.
The figure for `Cc1nc(NC(=O)c2ccccc2)sc1C(=O)NNC(=O)c1ccccc1` is 258 to 260 °C; for `CN(C)c1ccc(-c2nc(N(C)C)nnc2-c2ccc(F)cc2)cc1` it is 157 to 160 °C.
`O=C(O)CCCc1cc2cc(Cl)ccc2n1S(=O)(=O)c1cccc2ccccc12` displayed a melting point of 206 to 210 °C.
In the case of `O=C(CCCCCC(c1cc(F)ccc1F)S(=O)(=O)c1ccc(Cl)cc1)N1CCCC1` (configuration not stated) it was 106 °C.
